# Changes are numbered by the printed parent chain.
# Legend:
# Experiment in all cases: Maximal forward velocity and Km of GlcK, glucose varied (test C)
# Type in all cases: biochemical
# [1] = molecular target: T1, Streptococcus thermophilus glucokinase (GlcK) of strain ST1.1 (parent) (Streptococcus thermophilus, UniProt Q5M4Y5)
# T1 construct: G-6PDH/NADP coupled assay
# T1 sequence (Q5M4Y5 1-322): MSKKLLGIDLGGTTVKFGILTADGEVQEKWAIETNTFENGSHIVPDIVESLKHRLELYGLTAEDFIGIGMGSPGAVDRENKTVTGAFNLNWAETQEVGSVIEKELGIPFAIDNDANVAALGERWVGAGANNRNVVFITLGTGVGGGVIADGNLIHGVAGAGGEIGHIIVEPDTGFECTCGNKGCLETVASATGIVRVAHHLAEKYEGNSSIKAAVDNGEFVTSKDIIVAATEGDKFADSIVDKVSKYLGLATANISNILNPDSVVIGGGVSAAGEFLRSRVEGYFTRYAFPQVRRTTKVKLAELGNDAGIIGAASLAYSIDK
# Experimental: (§1) A fresh overnight culture of a Streptococcus thermophilus strain in M17 containing 30 g/L lactose was obtained and used to inoculate at 1% (vol/vol) 10 ml of fresh M17 30 g/L lactose. Cells were harvested by centrifugation (6000 g, 10 min, 4° C.) at a 600 nm optical density (OD600) of 0.8+/−0.2, washed in 5 ml cold GLCK buffer (5 mM MgCl2, 10 mM K2HPO4/KH2PO4 [pH 7.2]), and resuspended in 500 μl cold GLCK buffer. EDTA-free protease inhibitors “cOmplete™” (Roche, supplier reference 04693132001) was added in GLCK buffer as described by the provider. Cells were disrupted by the addition of 100 mg glass beads (150-212 μm, Sigma G1145) to 200 μl resuspended cells and oscillation at a frequency of 30 cycles/s for 6 min in a MM200 oscillating mill (Retsch, Haan, Germany). Cell debris and glass beads were removed by centrifugation (14000 g, 15 min, 4° C.), and supernatant transferred into a clean 1.5 mL centrifuge tube kept on ice. Total protein content was determined by using the FLUKA Protein Quantification Kit-Rapid (ref 51254). The glucokinase activity in the cell extracts was determined spectrophotometrically by a glucose-6-phosphate dehydrogenase (G-6PDH, EC1.1.1.49):[…] assay (Porter et al., 1982), essentially as described by Pool et al. (2006). […] The optical density at 340 nm was measured for 5 minutes by using a Synergy HT multi-detection microplate reader (BIO-TEK). […] Glucokinase activity was calculated as follows:
# (§2) Glucokinase activity (U/g of total protein extract)=dOD×V/[dt×l×ε×Qprot], wherein: • dOD is the variation of optical density (OD) at 340 nm • V is the volume of the reaction (herein 250 μL)
# (§3) Measurements were triplicated for each sample, and the glucokinase specific activity values given herein under test A are the mean of three independent experiments.
# (§4) Measurements were triplicated for each sample, and the Vmax values given herein under test C are the mean of three independent experiments.
# (§5) The respective mutants were called ST1.1m-glcK and ST1.2m-glcK. The GlcK sequence of these 2 mutants is as defined in SEQ ID NO:22.
# [2] = molecular target: T2, Streptococcus thermophilus glucokinase (GlcK) variant E275K of ST1.1, strain ST1.1m-glcK, SEQ ID NO: 22 (Streptococcus thermophilus, UniProt Q5M4Y5, E275K)
# T2 construct: G-6PDH/NADP coupled assay
# T2 sequence (Q5M4Y5 1-322 E275K): T1 sequence (Q5M4Y5 1-322) with E275K
# Experimental: as §1, §2, §3, §4, §5
# [3] = molecular target: T3, Streptococcus thermophilus glucokinase (GlcK) variant E275K of ST1.2, strain ST1.2m-glcK, SEQ ID NO: 22 (Streptococcus thermophilus, UniProt Q5M4Y5, E275K)
# T3 construct: G-6PDH/NADP coupled assay
# T3 sequence (Q5M4Y5 1-322 E275K): T1 sequence (Q5M4Y5 1-322) with E275K
# Experimental: as §1, §2, §3, §4, §5
# [4] = molecular target: T4, Streptococcus thermophilus glucokinase (GlcK) of strain ST1.2 (parent) (Streptococcus thermophilus, UniProt Q5M4Y5)
# T4 construct: G-6PDH/NADP coupled assay
# T4 sequence (Q5M4Y5 1-322): T1 sequence (Q5M4Y5 1-322)
# Experimental: as §1, §2, §3, §4, §5
# [5] = molecular target: T5, Streptococcus thermophilus glucokinase (GlcK) of strain DGCC7710 (DSM28255, GlcK type ST1), non-mutated, SEQ ID NO: 2 (Streptococcus thermophilus, UniProt Q5M4Y5); details: DGCC7710 crude extract; glucose 0, 5, 10, 15, 20 mM; 1 mM ATP; pH 7.2; 30° C; average of three experiments
# T5 construct: G-6PDH/NADP coupled assay
# T5 sequence (Q5M4Y5 1-322): T1 sequence (Q5M4Y5 1-322)
# Experimental: The linear regression representing the inverse of the specific velocity in function of the inverse of the glucose concentration gives the inverse of the maximal forward velocity at the intersection with the Y-axis of the graphic.
# A fresh overnight culture of a Streptococcus thermophilus strain in M17 containing 30 g/L lactose was obtained and used to inoculate at 1% (vol/vol) 10 ml of fresh M17 30 g/L lactose. Cells were harvested by centrifugation (6000 g, 10 min, 4° C.) at a 600 nm optical density (OD600) of 0.8+/−0.2, washed in 5 ml cold GLCK buffer (5 mM MgCl2, 10 mM K2HPO4/KH2PO4 [pH 7.2]), and resuspended in 500 μl cold GLCK buffer. EDTA-free protease inhibitors “cOmplete™” (Roche, supplier reference 04693132001) was added in GLCK buffer as described by the provider. Cells were disrupted by the addition of 100 mg glass beads (150-212 μm, Sigma G1145) to 200 μl resuspended cells and oscillation at a frequency of 30 cycles/s for 6 min in a MM200 oscillating mill (Retsch, Haan, Germany). […] Total protein content was determined by using the FLUKA Protein Quantification Kit-Rapid (ref 51254). […] The optical density at 340 nm was measured for 5 minutes by using a Synergy HT multi-detection microplate reader (BIO-TEK). […] Glucokinase activity was calculated as follows: […]
# [6] = molecular target: T6, Streptococcus thermophilus glucokinase (GlcK) variant E275K of DGCC7710, strain DSM32587 (DGCC12534), SEQ ID NO: 22 (Streptococcus thermophilus, UniProt Q5M4Y5, E275K); details: DSM32587 crude extract, glucose 0, 5, 10, 15, 20 mM, 1 mM ATP, pH 7.2, 30° C
# T6 construct: G-6PDH/NADP coupled assay
# T6 sequence (Q5M4Y5 1-322 E275K): T1 sequence (Q5M4Y5 1-322) with E275K
# Experimental: A fresh overnight culture of a Streptococcus thermophilus strain in M17 containing 30 g/L lactose was obtained and used to inoculate at 1% (vol/vol) 10 ml of fresh M17 30 g/L lactose. Cells were harvested by centrifugation (6000 g, 10 min, 4° C.) at a 600 nm optical density (OD600) of 0.8+/−0.2, washed in 5 ml cold GLCK buffer (5 mM MgCl2, 10 mM K2HPO4/KH2PO4 [pH 7.2]), and resuspended in 500 μl cold GLCK buffer. EDTA-free protease inhibitors “cOmplete™” (Roche, supplier reference 04693132001) was added in GLCK buffer as described by the provider. Cells were disrupted by the addition of 100 mg glass beads (150-212 μm, Sigma G1145) to 200 μl resuspended cells and oscillation at a frequency of 30 cycles/s for 6 min in a MM200 oscillating mill (Retsch, Haan, Germany). […] Total protein content was determined by using the FLUKA Protein Quantification Kit-Rapid (ref 51254). The glucokinase activity in the cell extracts was determined spectrophotometrically by a glucose-6-phosphate dehydrogenase (G-6PDH, EC1.1.1.49):[…] assay (Porter et al., 1982), essentially as described by Pool et al. (2006). […] The optical density at 340 nm was measured for 5 minutes by using a Synergy HT multi-detection microplate reader (BIO-TEK). […] Glucokinase activity was calculated as follows: […]
structure (smiles),measurement,setting,value
OC[C@H]1OC(O)[C@H](O)[C@@H](O)[C@@H]1O (some centres unmarked) [glucose],Vm Glucokinase (glucose),"[1]; ST1.1, summary table",2687
same,Vmax Glucokinase (glucose),"[1]; ST1.1 crude extract, glucose 0, 5, 10, 15, 20 mM, 1 mM ATP, pH 7.2, 30° C, average of three experiments",2687 U/g total protein extract
same,Vmax Glucokinase (glucose),"[2]; ST1.1m-glcK crude extract, glucose 0, 5, 10, 15, 20 mM, 1 mM ATP, pH 7.2, 30° C, average of three experiments",795 U/g total protein extract
same,Vm Glucokinase (glucose),"[2]; ST1.1m-glcK, summary table",795
same,Vmax Glucokinase (glucose),"[3]; ST1.2m-glcK crude extract, glucose 0, 5, 10, 15, 20 mM, 1 mM ATP, pH 7.2, 30° C, average of three experiments",501 U/g total protein extract
same,Vm Glucokinase (glucose),"[3]; ST1.2m-glcK, summary table",501
same,Vm Glucokinase (glucose),"[4]; ST1.2, summary table",2431
same,Vmax Glucokinase (glucose),"[4]; ST1.2 crude extract, glucose 0, 5, 10, 15, 20 mM, 1 mM ATP, pH 7.2, 30° C, average of three experiments",2431 U/g total protein extract
same,Vmax Glucokinase (glucose),[5],2855 U/g total protein extract
same,Vmax Glucokinase (glucose),[6]; average of three experiments,914 U/g total protein extract
same,Km,"[6]; read-out: Km Glucokinase (glucose), average",1330 µM

# — US11725199B2, “Lactic acid bacteria with sweetening properties and uses thereof” (DUPONT NUTRITION BIOSCIENCES APS, priority 2017, dated 2023)
